Values of other authors in US8431165B2, “Medicament for treatment of cancer and other diseases” (Swing Aerobics Licensing, Inc., priority 2004, dated 2013).

Conditions: adult men and women, mean+SD

For `CC/C=C\C/C=C\C/C=C\CCCCCCCC(=O)O` [alpha-linolenic acid], which “average estimated conversion of alpha-linolenic acid to docosahexaenoic acid” value is on record?
Its value is 3.6±3.8%.

And the “average estimated conversion of alpha-linolenic acid to n-3 LC-PUFA metabolites” value?
The value was 17.3±12.8%.
